In assay [1] the test system is SaHEPD (hydroxyethylphosphonate dioxygenase from Streptomyces albus; class II HEPD). Put plainly: steady-state kinetics. Type of assay: biochemical. The note with it: Fe(II), O2.
For assay [2] the test system is unchanged. The note with it: read-out: Km,HEP; Fe(II), O2; product MPn instead of HMP.

A word on the Km: it is the concentration of substrate that gives half-maximal velocity.

Turning to `O=P(O)(O)CCO` [2-HEP, 2-hydroxyethylphosphonate], the “Km,HEP” value in assay [1] was “very similar to those of purified wild-type SaHEPD (Fig. S6 and S7, Table S2)”. Further, in assay [2], the Km was found to be 15 ± 2 µM.
